{
  "source": "patent US8710082B2",
  "about": "“Benzimidazole inhibition of biofilm formation” (priority 2011, dated 2014)",
  "key": {"[1]": {"system": "V. cholerae", "assay": "MBEC static crystal-violet biofilm assay, V. cholerae", "assay_type": "cell-based, Vibrio cholerae", "conditions": "for inhibition of V. cholerae biofilm development: 100 μM, MBEC crystal-violet assay"}, "[2]": {"system": "P. aeruginosa CF-145", "assay": "MBEC static crystal-violet biofilm assay, P. aeruginosa CF-145", "assay_type": "cell-based, Pseudomonas aeruginosa", "protocol": "(§1) Biofilm formation was measured under both static and flow conditions. For the static condition, we used quantitative crystal violet assay on polystyrene 96-well and MBEC plates (Biosurface Technologies, Bozeman Mont.) as described previously. The MBEC technology is a 96-well plate cover containing 96 polystyrene pegs that sit in the 96 wells of a conventional plate. Briefly, overnight grown cultures were standardized to 0.1 OD595, 200 μL was transferred to the wells of a 96-well polystyrene microtiter plate (Corning, Inc., Corning, N.Y.), and the MBEC lid was placed on top of the wells. Biofilms were grown on the pegs of the lid under shaking conditions for 24 h. The lid was removed and the pegs were gently washed twice with 200 μL of phosphate-buffered saline to remove non adherent cells. Adherent biofilms on the pegs were fixed with 200 μL of 100% ethanol prior to staining for 2 min with 200 μL of 0.41% (wt/vol) crystal violet in 12% ethanol (Protocol Crystal Violet; Biochemical Sciences, Swedesboro, N.J.). […] Quantitative assessment of biofilm formation was obtained by immersing the pegs in sterile polystyrene microtiter plate containing 200 μl of 100% ethanol and incubating at room temperature for 10 min (60) and the absorbance at 595 nm was determined using a SpectraMax M5 microplate spectrophotometer system (Molecular Devices, Sunnyvale, Calif.). […]"}, "[3]": {"system": "Klebsiella pneumoniae", "assay": "MBEC static biofilm assay, K. pneumoniae", "assay_type": "cell-based", "conditions": "ABC-1 between 50 and 100 μM for select pathogens, 24 hours", "protocol": "as §1"}, "[4]": {"system": "Erwinia amylovora", "assay": "MBEC static biofilm assay, E. amylovora", "assay_type": "cell-based", "conditions": "100 μM", "protocol": "as §1"}, "[5]": {"system": "Shigella boydii", "assay": "MBEC static biofilm assay, S. boydii", "assay_type": "cell-based", "conditions": "100 μM", "protocol": "as §1"}, "[6]": {"system": "S. aureus strain Newman", "assay": "MBEC static biofilm assay, S. aureus Newman", "assay_type": "cell-based, Staphylococcus aureus", "conditions": "25 μM", "protocol": "as §1"}, "[7]": {"system": "Staphylococcus aureus MRSA strain USA3000", "assay": "MBEC static biofilm assay, S. aureus USA300 (CA-MRSA)", "assay_type": "cell-based", "conditions": "25 μM", "protocol": "as §1"}, "[8]": {"system": "V. cholerae", "assay": "Flow-cell biofilm formation (CLSM), V. cholerae", "assay_type": "cell-based, Vibrio cholerae", "conditions": "10 μM, 24 hours", "protocol": "For biofilm experiments under flow conditions, biofilms were grown in disposable flow cells (Stovall Life Science, Greensboro, N.C.) as described elsewhere. In brief, the inlet side of the flow cell was connected to a sterile reservoir filled with the appropriate growth medium. The outlet side was connected to a waste reservoir to create a “once-through” flow cell system. Tubing upstream of each individual cell was injected with 0.5 mL of standardized overnight culture of the test strain and the chamber was incubated in upright position at 37° C. for 1 h. Flow was then resumed with flow rate of 0.2 mL/min for V. cholerae, P. aeruginosa, S. boydii, S. aureus and K. pneumoniae, and a flow rate of 0.15 mL/min for E. amylovora. The non-adherent bacteria were eventually flushed by the flow of the medium thereby replacing the volume of the flow cell once every minute. Biofilm formation on the flow cell was imaged both macroscopically and microscopically at 24 h and 48 h. […]\nFor CLSM analysis of biofilms, the medium flow was stopped and fluorescent dyes syto-9 and propidium iodide (Molecular Probes, Eugene, Oreg., USA) were injected into the flow cell chamber and incubated for 30 min in the dark. […] Thickness of the biofilm was measured starting from the z-section at the flow-cell/biofilm interface to the z-section at the top of the biofilm surface containing <5% of total biomass. […]"}, "[9]": {"system": "P. aeruginosa CF-145", "assay": "Flow-cell biofilm formation (CLSM), P. aeruginosa CF-145", "assay_type": "cell-based, Pseudomonas aeruginosa", "conditions": "100 μM, 24 h"}, "[10]": {"system": "Klebsiella pneumoniae", "assay": "Flow-cell biofilm formation (CLSM), K. pneumoniae", "assay_type": "cell-based", "conditions": "continuous flow"}, "[11]": {"system": "E. amylovora", "assay": "Flow-cell biofilm formation (CLSM), E. amylovora", "assay_type": "cell-based, Erwinia amylovora", "conditions": "100 μM, continuous flow"}, "[12]": {"system": "S. boydii", "assay": "Flow-cell biofilm formation (CLSM), S. boydii", "assay_type": "cell-based, Shigella boydii", "conditions": "100 μM, 48 h"}, "[13]": {"system": "S. aureus strain Newman", "assay": "Flow-cell biofilm formation (CLSM), S. aureus Newman", "assay_type": "cell-based, Staphylococcus aureus", "conditions": "25 μM, shear conditions"}, "[14]": {"system": "CA-MRSA (USA-300)", "assay": "Flow-cell biofilm formation (CLSM), CA-MRSA USA300", "assay_type": "cell-based, Staphylococcus aureus", "conditions": "25 μM, shear conditions"}, "[15]": {"system": "K. pneumoniae pre-formed biofilms", "assay": "Dispersal of pre-formed biofilms under flow, K. pneumoniae", "assay_type": "cell-based, Klebsiella pneumoniae", "conditions": "100 μM added at 24 hours, 3, 6 and 24-hour incubation"}, "[16]": {"system": "P. aeruginosa pre-formed biofilms", "assay": "Dispersal of pre-formed biofilms under flow, P. aeruginosa", "assay_type": "cell-based, Pseudomonas aeruginosa", "conditions": "100 μM added at 24 hours, 3, 6 and 24-hour incubation"}, "[17]": {"system": "S. aureus", "assay_type": "cell-based, Staphylococcus aureus", "conditions": "data not shown"}, "[18]": {"system": "gram-negative bacteria", "assay": "Impact on growth of gram-negative bacteria", "assay_type": "cell-based", "conditions": "concentrations used in biofilm tests; data not shown"}, "[19]": {"system": "c-di-GMP in V. cholerae", "assay_type": "cell-based, Vibrio cholerae"}, "[20]": {"system": "c-di-GMP in P. aeruginosa PA01", "assay_type": "cell-based, Pseudomonas aeruginosa", "conditions": "35 μM, data not shown"}, "[21]": {"system": "diguanylate cyclase (DGC) enzyme VC2370", "assay_type": "biochemical", "excerpt": "(§2) Furthermore, we established an in vitro assay to measure the activity of the diguanylate cyclase (DGC) enzyme VC2370 that synthesizes c-di-GMP and the phosphodiesterase (PDE) enzyme VieA that degrades c-di-GMP."}, "[22]": {"system": "phosphodiesterase (PDE) enzyme VieA", "assay_type": "biochemical", "excerpt": "as §2"}, "[23]": {"system": "VC1673-lux", "assay": "microbe, parasite or virus in culture", "conditions": "Vibrio cholerae, read-out: IC50 of inhibition of VC1673-lux"}},
  "note": "Entries after “also recorded” stand apart in the source; their conditions may differ.",
  "data": [
    {"smiles": "COc1ccc2[nH]c(SCc3ccc(C)cc3)nc2c1", "note": "[ABC-1, 5-methoxy-2-[(4-methylbenzyl)sulfanyl]-1H-benzimidazole]", "values": [
      {"measurement": "inhibition of V. cholerae biofilm development", "setting": "[1]", "value": "capable of significantly inhibiting V. cholerae biofilm development"},
      {"measurement": "IC50", "setting": "[1]; Vibrio cholerae, read-out: IC50 to inhibit biofilm formation of V. cholerae", "value": 32.3, "unit": "nM"},
      {"measurement": "inhibition of biofilms, static", "setting": "[2]; ABC-1 between 50 and 100 μM for select pathogens, MBEC static", "value": "significantly inhibited biofilms"},
      {"measurement": "IC50", "setting": "[2]; Pseudomonas aeruginosa, CF145, read-out: IC50 to inhibit biofilm formation of P. aeruginosa", "value": 45.9, "unit": "nM"},
      {"measurement": "inhibition of biofilms, static", "setting": "[3]", "value": "significantly inhibited biofilms; also recorded: inhibited biofilm formation"},
      {"measurement": "inhibition of biofilms, static", "setting": "[4]", "value": "significantly inhibited biofilms; also recorded: pronounced decrease"},
      {"measurement": "inhibition of biofilms, static", "setting": "[5]", "value": "significantly inhibited biofilms; also recorded: significantly impacted"},
      {"measurement": "inhibition of biofilms, static", "setting": "[6]", "value": "significantly inhibited biofilms; also recorded: statistically significant (P<0.05), but less robust than observed for most gram-negative pathogens"},
      {"measurement": "inhibition of biofilms, static", "setting": "[7]", "value": "significantly inhibited biofilms; also recorded: statistically significant (P<0.05), but less robust than observed for most gram-negative pathogens"},
      {"measurement": "biofilm formation under flow", "setting": "[8]", "value": "dramatically reduced biofilm formation"},
      {"measurement": "biofilm formation under flow", "setting": "[9]", "value": "greatly reduced biofilm formation"},
      {"measurement": "biofilm formation under flow", "setting": "[10]; 24 hours", "value": "inhibited biofilm formation"},
      {"measurement": "fate of biofilms that did form in the presence of ABC-1", "setting": "[10]; data not shown", "value": "began to disperse beyond 30 hours"},
      {"measurement": "biofilm development under flow", "setting": "[11]", "value": "pronounced decrease"},
      {"measurement": "biofilm formation under flow", "setting": "[12]", "value": "greatly reduced biofilm formation"},
      {"measurement": "biofilm formation under flow", "setting": "[13]", "value": "less surface area coverage and biofilms were present as small patches"},
      {"measurement": "biofilm formation under flow", "setting": "[14]", "value": "reduced compared to the untreated condition"},
      {"measurement": "dispersal of pre-formed biofilms", "setting": "[15]", "value": "did not confer any significant changes in biofilm architecture"},
      {"measurement": "dispersal of pre-formed biofilms", "setting": "[16]", "value": "did not confer any significant changes in biofilm architecture"},
      {"measurement": "concentration that inhibited the growth of S. aureus", "setting": "[17]", "value": "≥ 50", "unit": "µM"},
      {"measurement": "inhibition of growth of gram-negative bacteria", "setting": "[18]", "value": "no impact on growth; also recorded: no concentration of ABC-1 showed inhibition of growth"},
      {"measurement": "intracellular c-di-GMP", "setting": "[19]", "value": "modest reduction"},
      {"measurement": "levels of c-di-GMP", "setting": "[20]", "value": "no effect"},
      {"measurement": "in vitro activity of DGC VC2370", "setting": "[21]", "value": "no significant impact"},
      {"measurement": "in vitro activity of PDE VieA", "setting": "[22]", "value": "no significant impact"},
      {"measurement": "IC50", "setting": "[23]", "value": "< 10000", "unit": "nM"}
    ]},
    {"smiles": "COc1ccc2[nH]c(SCc3ccc(Cl)cc3)nc2c1", "note": "[ABC-2, 2-[(4-chlorobenzyl)thio]-5-methoxy-1H-benzimidazole]", "values": [
      {"measurement": "inhibition of V. cholerae biofilm development", "setting": "[1]", "value": "capable of significantly inhibiting V. cholerae biofilm development"},
      {"measurement": "IC50", "setting": "[23]", "value": "< 10000", "unit": "nM"}
    ]}
  ]
}
